For 14 compounds, TGI results are on record in PubChem BioAssay (NCI).

The structures appear in SMILES notation.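 48-hour exposure; five concentrations; linearly interpolated endpoints. TGI: total growth inhibition.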

Some test systems named below: MCF7 breast; SK-MEL-28 melanoma; MDA-MB-435; MOLT-4 leukemia; RPMI-8226 leukemia; MALME-3M melanoma; HS 578T breast; DU-145 prostate; RXF 393 renal; SW-620 colon.
What all share (assay): NCI anticancer screen, dose series, 48 h

Consider `COC(=O)C(I(OS(=O)(=O)c1ccc(C)cc1)c1ccccc1)=P(c1ccccc1)(c1ccccc1)c1ccccc1`, for which the TGI with MCF7 breast was determined as 94.5 µM; in the test with SK-MEL-28 melanoma it was 28.7 µM; in the test on MDA-MB-435 it was 36.5 µM; in the test with MOLT-4 leukemia, 84.4 µM; in the test on RPMI-8226 leukemia, 24.2 µM; in the test with MALME-3M melanoma, 21.6 µM. In addition, the TGI was 85.1 µM in the test on HS 578T breast, 32.4 µM in the test on DU-145 prostate and 39.2 µM in the test with RXF 393 renal.
With `COC[C@H](Cc1ccccc1)N=Cc1ccccc1`, the TGI in the test on MCF7 breast, in the test with SK-MEL-28 melanoma, in the test on MDA-MB-435, in the test with MOLT-4 leukemia, with RPMI-8226 leukemia and with MALME-3M melanoma was > 100 µM throughout. Moreover, the TGI with SW-620 colon, with HS 578T breast, with DU-145 prostate and in the test with RXF 393 renal was > 100 µM throughout.
For `CC(C)(C)OC(=O)N(CCCN)CCCCN(CCCN)C(=O)OC(C)(C)C`, the TGI in the test on MCF7 breast, with SK-MEL-28 melanoma, with MDA-MB-435, in the test on MOLT-4 leukemia, in the test with RPMI-8226 leukemia and with SW-620 colon was > 100 µM throughout. For the same compound, the TGI in the test with HS 578T breast, with DU-145 prostate and in the test with RXF 393 renal was > 100 µM each time.
`CCC(c1ccc(N(C)C)cc1)C1NC(=S)NC1=O` (stereo unspecified): the TGI in the test on MCF7 breast, in the test with SK-MEL-28 melanoma, with MDA-MB-435, with MOLT-4 leukemia, in the test on RPMI-8226 leukemia and with MALME-3M melanoma was > 100 µM throughout. The TGI in the test on SW-620 colon, in the test on HS 578T breast, in the test with DU-145 prostate and in the test on RXF 393 renal was > 100 µM in each case.
Regarding `O=S(=O)(N1CCCCN(S(=O)(=O)C(F)(F)F)CCCN(S(=O)(=O)C(F)(F)F)CCCN(S(=O)(=O)C(F)(F)F)CCCCN(S(=O)(=O)C(F)(F)F)CCCN(S(=O)(=O)C(F)(F)F)CCC1)C(F)(F)F`, the TGI with MCF7 breast was > 100 µM; in the test on SK-MEL-28 melanoma, > 100 µM; in the test with MDA-MB-435, > 100 µM; in the test on MOLT-4 leukemia, > 100 µM; with MALME-3M melanoma, 49.5 µM; in the test on SW-620 colon, > 100 µM. The TGI in the test on HS 578T breast was 92.4 µM; with DU-145 prostate, > 100 µM; in the test with RXF 393 renal, 70.2 µM.
Take `COc1cc(OC)cc(N(C)Cc2cnc3nc(N)nc(N)c3c2C)c1`: the TGI in the test with MCF7 breast, in the test with SK-MEL-28 melanoma, in the test on MDA-MB-435, with MOLT-4 leukemia, in the test on RPMI-8226 leukemia and in the test on MALME-3M melanoma was > 100 µM each time. For the same compound, the TGI in the test with SW-620 colon, in the test on HS 578T breast, in the test on DU-145 prostate and in the test with RXF 393 renal was > 100 µM each time.
Consider `CC(C)(C)OC(=O)NCCNC(=O)OCc1ccccc1`, for which the TGI in the test with MCF7 breast, with SK-MEL-28 melanoma, in the test with MDA-MB-435, with MOLT-4 leukemia, with RPMI-8226 leukemia and with MALME-3M melanoma was > 100 µM each time. Further, the TGI in the test on SW-620 colon, in the test on HS 578T breast, with DU-145 prostate and in the test on RXF 393 renal was > 100 µM in each case.
Turning to `C[C@H]1C(=O)C2=C[C@H]1CCC(=O)[C@]1(C)CCCC(C)(C)[C@H]1C[C@H]2O`, the TGI in the test with MCF7 breast was 27.3 µM; with SK-MEL-28 melanoma, > 100 µM; with MDA-MB-435, > 100 µM; with MOLT-4 leukemia it was > 100 µM; with RPMI-8226 leukemia it was 34.2 µM; in the test on MALME-3M melanoma it was 43.5 µM. For the same compound, the TGI with SW-620 colon is 28.2 µM; with HS 578T breast, 62.7 µM; in the test on DU-145 prostate, 96.8 µM; in the test with RXF 393 renal, 23.6 µM.
`COc1ccc(N=Nc2ccc3oc(=O)c(C(=O)Nc4ccc(OC)cc4)cc3c2)cc1`: the TGI in the test on MCF7 breast was 38 µM; with SK-MEL-28 melanoma, 41.1 µM; in the test on MDA-MB-435, 54.8 µM; with MOLT-4 leukemia, 34.9 µM; with RPMI-8226 leukemia, 67.2 µM; in the test on MALME-3M melanoma it was 52.7 µM. The TGI with SW-620 colon is 66.1 µM; with HS 578T breast it was 89.9 µM; in the test with DU-145 prostate, 53.9 µM; with RXF 393 renal, > 100 µM.
`COc1ccc(/C=N/NC(=O)c2ccccc2Nc2ccccc2C(=O)N/N=C/c2ccc(OC)c(OC)c2)cc1OC`: the TGI with MCF7 breast, in the test with SK-MEL-28 melanoma, with MDA-MB-435, in the test with MOLT-4 leukemia, with RPMI-8226 leukemia and in the test with MALME-3M melanoma was > 100 µM in each case. Also, the TGI in the test on SW-620 colon, in the test on HS 578T breast, with DU-145 prostate and with RXF 393 renal was > 100 µM in each case.
Consider `CCCCCCc1cc2cc(C(=O)Nc3cccc(C(F)(F)F)c3)c(=N)oc2cc1O`, for which the TGI in the test on MCF7 breast was 6.47 µM; in the test on SK-MEL-28 melanoma, 27.6 µM; in the test with MDA-MB-435 it was 5.18 µM; in the test with MOLT-4 leukemia it was 4.19 µM; in the test with RPMI-8226 leukemia it was > 20.3 µM; with MALME-3M melanoma, 6.2 µM. The TGI with SW-620 colon was > 46.1 µM; in the test with HS 578T breast it was 9.99 µM; with DU-145 prostate, 3.3 µM; in the test on RXF 393 renal, 2.19 µM.
Take `CCOC(=O)C1C(=O)C=C(c2cc(C)ccc2O)CC1c1cccc(Br)c1` (stereo unspecified): the TGI in the test with MCF7 breast was 87.1 µM; in the test with MDA-MB-435, 8.81 µM; in the test on MOLT-4 leukemia it was 43.7 µM; in the test on RPMI-8226 leukemia it was 33.8 µM; with MALME-3M melanoma it was 42.4 µM; in the test on SW-620 colon it was > 100 µM. For the same compound, the results for the TGI with HS 578T breast, with DU-145 prostate and with RXF 393 renal were 34.4 µM, > 100 µM and 33.4 µM, respectively.
On to `O=C1NC(N2CCCC(CO)C2)=N/C1=C\c1ccc(O)cc1` (stereo unspecified), for which the TGI in the test on MCF7 breast, in the test with SK-MEL-28 melanoma, with MDA-MB-435, in the test with MOLT-4 leukemia, in the test with RPMI-8226 leukemia and with MALME-3M melanoma was > 100 µM each time. Also, the TGI in the test on SW-620 colon, in the test with HS 578T breast, in the test with DU-145 prostate and in the test with RXF 393 renal was > 100 µM each time.
With `Cc1cc(C)n(CN(Cn2nc(C)cc2C)c2ccc(N(Cn3nc(C)cc3C)Cn3nc(C)cc3C)cc2)n1`, the TGI in the test on MCF7 breast is 44.4 µM; in the test on SK-MEL-28 melanoma, 37.1 µM; in the test with MDA-MB-435, 35.9 µM; with MOLT-4 leukemia, > 100 µM; in the test with RPMI-8226 leukemia it was 40 µM; in the test with MALME-3M melanoma it was 41.8 µM. The TGI came to 61.4 µM with SW-620 colon, 57 µM with HS 578T breast, 58.3 µM with DU-145 prostate and 42.6 µM with RXF 393 renal.
